From patent US20240000872A1, “NOVEL BACTERIOPHAGE THAT LYSES ACINETOBACTER GENUS BACTERIA HAVING RESISTANCE TO ANTIBIOTICS” (priority 2020, published 2024)

System: Acinetobacter baumannii strains
Test: Antibiotic susceptibility test (CLSI disk diffusion test method, read per CLSI 2016)
Assay type: cell-based
Method: (§1) Strain identification was performed using a kit such as AT 32 GN system (bioMérieux, Marcy l'Etoile, France). […] In Table 2 below, S, I, and R are the results obtained by evaluating susceptibility to the antibacterial agents, in which ‘S’ means susceptible, ‘I’ means intermediate, and ‘R’ means resistant.
as §1, with “as ATB” for “as AT”, “system (bioMédrieux,” for “system (bioMérieux,”, “Table 6” for “Table 2”
as §1, with “as ATB” for “as AT”, “Table 10” for “Table 2”, “susceptible, T” for “susceptible, ‘I’”

## CC(C)(O/N=C(\C(=O)N[C@@H]1C(=O)N2C(C(=O)[O-])=C(C[n+]3ccccc3)CS[C@H]12)c1csc(N)n1)C(=O)O [Ceftazidime, ceftazidime]
Host strain YMC14/01/C29
  antibiotic susceptibility class: R
Host strain YMC14/01/IP122
  antibiotic susceptibility class: R
Host strain YMC14/01/L8
  antibiotic susceptibility class: R
Host strain YMC14/01/P31
  antibiotic susceptibility class: R
Host strain YMC14/01/P117
  antibiotic susceptibility class: R
Host strain YMC14/01/P224
  antibiotic susceptibility class: R
Host strain YMC14/01/P727
  antibiotic susceptibility class: R
Host strain YMC14/01/P728
  antibiotic susceptibility class: R
Host strain YMC14/01/R130
  antibiotic susceptibility class: R
Host strain YMC14/01/R160
  antibiotic susceptibility class: R
Host strain YMC14/01/R198
  antibiotic susceptibility class: R
Host strain YMC14/01/R257
  antibiotic susceptibility class: R
Host strain YMC14/01/R270
  antibiotic susceptibility class: R
Host strain YMC14/01/R324
  antibiotic susceptibility class: R
Host strain YMC14/01/R443
  antibiotic susceptibility class: R
Host strain YMC14/01/R451
  antibiotic susceptibility class: R
Host strain YMC14/01/R560
  antibiotic susceptibility class: R
Host strain YMC14/01/R617
  antibiotic susceptibility class: I
Host strain YMC14/01/R671
  antibiotic susceptibility class: R
Host strain YMC14/01/R732
  antibiotic susceptibility class: R
Host strain YMC14/01/R767
  antibiotic susceptibility class: R
Host strain YMC14/01/R904
  antibiotic susceptibility class: R
Host strain YMC14/01/R905
  antibiotic susceptibility class: R
Host strain YMC14/01/R921
  antibiotic susceptibility class: R
Host strain YMC14/01/R941
  antibiotic susceptibility class: R
Host strain YMC14/01/R958
  antibiotic susceptibility class: R
Host strain YMC14/01/R1006
  antibiotic susceptibility class: R
Host strain YMC14/01/R1199
  antibiotic susceptibility class: R
Host strain YMC14/01/R1659
  antibiotic susceptibility class: R
Host strain YMC14/01/R1722
  antibiotic susceptibility class: R
Host strain YMC14/01/R1752
  antibiotic susceptibility class: R
Host strain YMC14/01/R2429
  antibiotic susceptibility class: R
Host strain YMC14/01/R2572
  antibiotic susceptibility class: R
Host strain YMC14/01/R2855
  antibiotic susceptibility class: R
Host strain YMC14/01/R2945
  antibiotic susceptibility class: R
Host strain YMC14/01/R3007
  antibiotic susceptibility class: R
Host strain YMC14/01/R3129
  antibiotic susceptibility class: R
Host strain YMC14/01/R3317
  antibiotic susceptibility class: R
Host strain YMC14/01/R3474
  antibiotic susceptibility class: R
Host strain YMC14/01/R3574
  antibiotic susceptibility class: R
Host strain YMC14/01/U313
  antibiotic susceptibility class: R
Host strain YMC14/01/U318
  antibiotic susceptibility class: R
Host strain YMC14/02/L18
  antibiotic susceptibility class: R
Host strain YMC14/02/P47
  antibiotic susceptibility class: R
Host strain YMC14/02/R1860
  antibiotic susceptibility class: R
Host strain YMC14/02/R2417
  antibiotic susceptibility class: R
Host strain YMC14/02/R2599
  antibiotic susceptibility class: R
Host strain YMC14/02/R2668
  antibiotic susceptibility class: R
Host strain YMC14/02/R2758
  antibiotic susceptibility class: R
Host strain YMC14/02/R2781
  antibiotic susceptibility class: R
Host strain YMC14/02/R3106
  antibiotic susceptibility class: R
Host strain YMC14/02/R3419
  antibiotic susceptibility class: R
Host strain YMC14/02/U1607
  antibiotic susceptibility class: R
Host strain YMC14/03/L9
  antibiotic susceptibility class: R
Host strain YMC14/03/P471
  antibiotic susceptibility class: R
Host strain YMC14/03/R122
  antibiotic susceptibility class: R
Host strain YMC14/03/R217
  antibiotic susceptibility class: R
Host strain YMC14/03/R380
  antibiotic susceptibility class: R
Host strain YMC14/03/R618
  antibiotic susceptibility class: R
Host strain YMC14/03/R2144
  antibiotic susceptibility class: R
Host strain YMC14/03/U4616
  antibiotic susceptibility class: R
Host strain YMC14/04/R1078
  antibiotic susceptibility class: R
Host strain YMC14/04/R1080
  antibiotic susceptibility class: R
Host strain YMC14/06/R2359
  antibiotic susceptibility S/I/R: R
  susceptibility category (S/I/R): R
Host strain YMC14/08/R1169
  antibiotic susceptibility S/I/R: R
  susceptibility category (S/I/R): R
Host strain YMC14/08/T90
  antibiotic susceptibility S/I/R: R
  susceptibility category (S/I/R): R
Host strain YMC15/02/R436
  antibiotic susceptibility S/I/R: R
  susceptibility category (S/I/R): R
Host strain YMC15/02/T28
  antibiotic susceptibility S/I/R: R
  susceptibility category (S/I/R): R
Host strain YMC15/03/R1604
  antibiotic susceptibility S/I/R: R
  susceptibility category (S/I/R): R
Host strain YMC15/09/R1869
  antibiotic susceptibility S/I/R: R
  susceptibility category (S/I/R): R
Host strain YMC16/01/P11
  antibiotic susceptibility S/I/R: R
  susceptibility category (S/I/R): R
Host strain YMC16/01/R123
  antibiotic susceptibility S/I/R: R
  susceptibility category (S/I/R): R
Host strain YMC16/01/R198
  antibiotic susceptibility S/I/R: R
  susceptibility category (S/I/R): R
Host strain YMC16/01/R353
  antibiotic susceptibility S/I/R: R
  susceptibility category (S/I/R): R
Host strain YMC16/01/R380
  antibiotic susceptibility S/I/R: R
  susceptibility category (S/I/R): R
Host strain YMC16/01/R397
  antibiotic susceptibility S/I/R: R
  susceptibility category (S/I/R): R
Host strain YMC16/01/R405
  antibiotic susceptibility S/I/R: R
  susceptibility category (S/I/R): R
Host strain YMC16/03/R4461
  antibiotic susceptibility S/I/R: R
  susceptibility category (S/I/R): R
Host strain YMC16/05/R2210
  antibiotic susceptibility S/I/R: R
  susceptibility category (S/I/R): R
Host strain YMC16/07/R2512
  antibiotic susceptibility S/I/R: R
  susceptibility category (S/I/R): R
Host strain YMC16/09/R2471
  antibiotic susceptibility S/I/R: R
  susceptibility category (S/I/R): R
Host strain YMC16/10/R2537
  antibiotic susceptibility S/I/R: R
  susceptibility category (S/I/R): R
Host strain YMC16/12/B11422
  antibiotic susceptibility S/I/R: R
  susceptibility category (S/I/R): R
Host strain YMC16/12/B11449
  antibiotic susceptibility S/I/R: R
  susceptibility category (S/I/R): R
Host strain YMC16/12/B13325
  antibiotic susceptibility S/I/R: R
  susceptibility category (S/I/R): R
Host strain YMC16/12/P503
  antibiotic susceptibility S/I/R: R
  susceptibility category (S/I/R): R
Host strain YMC16/12/R4637
  antibiotic susceptibility S/I/R: R
  susceptibility category (S/I/R): R
Host strain YMC17/01/B8053
  antibiotic susceptibility S/I/R: R
  susceptibility category (S/I/R): R
Host strain YMC17/01/B10087
  antibiotic susceptibility S/I/R: R
  susceptibility category (S/I/R): R
Host strain YMC17/01/B12075
  antibiotic susceptibility S/I/R: R
  susceptibility category (S/I/R): R
Host strain YMC17/01/B13454
  antibiotic susceptibility S/I/R: R
  susceptibility category (S/I/R): R
Host strain YMC17/01/P518
  antibiotic susceptibility S/I/R: R
  susceptibility category (S/I/R): R
Host strain YMC17/01/R2812
  antibiotic susceptibility S/I/R: R
  susceptibility category (S/I/R): R
Host strain YMC17/02/B14
  antibiotic susceptibility S/I/R: R
  susceptibility category (S/I/R): R
Host strain YMC17/02/B87
  antibiotic susceptibility S/I/R: R
  susceptibility category (S/I/R): R
Host strain YMC17/02/B721
  antibiotic susceptibility S/I/R: R
  susceptibility category (S/I/R): R
Host strain YMC17/02/B4039
  antibiotic susceptibility S/I/R: R
  susceptibility category (S/I/R): R
Host strain YMC17/02/B4520
  antibiotic susceptibility S/I/R: R
  susceptibility category (S/I/R): R
Host strain YMC17/02/B4864
  antibiotic susceptibility S/I/R: S
  susceptibility category (S/I/R): S
Host strain YMC17/02/B8414
  antibiotic susceptibility S/I/R: R
  susceptibility category (S/I/R): R
Host strain YMC17/02/P523
  antibiotic susceptibility S/I/R: R
  susceptibility category (S/I/R): R
Host strain YMC17/02/R541
  antibiotic susceptibility S/I/R: R
  susceptibility category (S/I/R): R
Host strain YMC17/02/R2392
  antibiotic susceptibility S/I/R: R
  susceptibility category (S/I/R): R
Host strain YMC17/03/B4730
  antibiotic susceptibility S/I/R: R
  susceptibility category (S/I/R): R
Host strain YMC17/03/B5000
  antibiotic susceptibility S/I/R: R
  susceptibility category (S/I/R): R
Host strain YMC17/03/P971
  antibiotic susceptibility S/I/R: R
  susceptibility category (S/I/R): R
Host strain YMC17/03/R348
  antibiotic susceptibility S/I/R: R
  susceptibility category (S/I/R): R
Host strain YMC17/03/R585
  antibiotic susceptibility S/I/R: R
  susceptibility category (S/I/R): R
Host strain YMC17/03/R1888
  antibiotic susceptibility S/I/R: R
  susceptibility category (S/I/R): R
Host strain YMC17/03/R3279
  antibiotic susceptibility S/I/R: R
  susceptibility category (S/I/R): R
Host strain YMC17/03/R4077
  antibiotic susceptibility S/I/R: R
  susceptibility category (S/I/R): R
Host strain YMC17/03/R4607
  antibiotic susceptibility S/I/R: R
  susceptibility category (S/I/R): R
Host strain YMC17/04/R488
  antibiotic susceptibility S/I/R: R
  susceptibility category (S/I/R): R
Host strain YMC17/04/R640
  antibiotic susceptibility S/I/R: R
  susceptibility category (S/I/R): R
Host strain YMC/17/05/R1095
  antibiotic susceptibility S/I/R: R
  susceptibility category (S/I/R): R
